Results from patent US10508120B2, “TYK2 inhibitors and uses thereof” (Nimbus Lakshmi, Inc., priority 2017, dated 2019).
Like-named read-outs stand apart in the source and are kept apart here.

Key:
[1] = biological target: human TYK2 (JH2domain-pseudokinase) (Homo sapiens (Human), UniProt P29597); assay: TYK2 JH2 Domain Binding Assay (KINOMEscan)
Method in brief: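 Kds, run in duplicate, came from Hill fits (slope fixed at −1) of an 11-point 3-fold dilution series starting at 30,000 nM. Bead-retained TYK2 JH2 (aa G556–D888)–NFkB DBD fusion, DNA-tagged and expressed in HEK293 cells, was read by qPCR after 1 h room-temperature binding in 0.9% DMSO.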

[2] = biological target: Tyk2/JAK2 (heterodimeric complex) (Homo sapiens (Human), UniProt P29597); assay: IL-12 Induced pSTAT4 in Human PBMC; assay type: cell-based; conditions: 1.7 ng/mL IL-12
Text: The IL-12 Induced pSTAT4 assay evaluates the inhibition of IL-12 induced STAT4 phophorylation mediated by Tyk2/JAK2 (heterodimeric complex).

[3] = biological target: JAK2 kinase domain (JH1) (Homo sapiens (Human), UniProt O60674); assay: JAK2 Radioactive Kinase Assay; assay type: biochemical; conditions: for inhibition at 10 µM: read-out: JAK2 JH1% Inhibition @ 10 μM
Method in brief: (§1)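 Read-out is percent inhibition from a radioactive kinase reaction, measured with compound at 10 μM.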

[4] = biological target: Tyk2 kinase domain (DH1) (Homo sapiens (Human), UniProt P29597); assay: Tyk2 Radioactive Kinase Assay; assay type: biochemical; conditions: for inhibition at 10 µM: read-out: Tyk2 JH1% Inhibition @ 10 μM
Method in brief: as §1

[5] = biological target: JAK2/JAK2 homdimeric complex (Homo sapiens (Human), UniProt O60674); assay: GM-CSF Induced pSTAT5 in Human PBMC; assay type: cell-based; conditions: GM-CSF 5 ng/mL for 20 minutes, pSTAT5 by MSD, read-out: PBMC_GMCSF_pSTAT5 IC50
Sequence of JAK2/JAK2 homdimeric complex (O60674 whole entry): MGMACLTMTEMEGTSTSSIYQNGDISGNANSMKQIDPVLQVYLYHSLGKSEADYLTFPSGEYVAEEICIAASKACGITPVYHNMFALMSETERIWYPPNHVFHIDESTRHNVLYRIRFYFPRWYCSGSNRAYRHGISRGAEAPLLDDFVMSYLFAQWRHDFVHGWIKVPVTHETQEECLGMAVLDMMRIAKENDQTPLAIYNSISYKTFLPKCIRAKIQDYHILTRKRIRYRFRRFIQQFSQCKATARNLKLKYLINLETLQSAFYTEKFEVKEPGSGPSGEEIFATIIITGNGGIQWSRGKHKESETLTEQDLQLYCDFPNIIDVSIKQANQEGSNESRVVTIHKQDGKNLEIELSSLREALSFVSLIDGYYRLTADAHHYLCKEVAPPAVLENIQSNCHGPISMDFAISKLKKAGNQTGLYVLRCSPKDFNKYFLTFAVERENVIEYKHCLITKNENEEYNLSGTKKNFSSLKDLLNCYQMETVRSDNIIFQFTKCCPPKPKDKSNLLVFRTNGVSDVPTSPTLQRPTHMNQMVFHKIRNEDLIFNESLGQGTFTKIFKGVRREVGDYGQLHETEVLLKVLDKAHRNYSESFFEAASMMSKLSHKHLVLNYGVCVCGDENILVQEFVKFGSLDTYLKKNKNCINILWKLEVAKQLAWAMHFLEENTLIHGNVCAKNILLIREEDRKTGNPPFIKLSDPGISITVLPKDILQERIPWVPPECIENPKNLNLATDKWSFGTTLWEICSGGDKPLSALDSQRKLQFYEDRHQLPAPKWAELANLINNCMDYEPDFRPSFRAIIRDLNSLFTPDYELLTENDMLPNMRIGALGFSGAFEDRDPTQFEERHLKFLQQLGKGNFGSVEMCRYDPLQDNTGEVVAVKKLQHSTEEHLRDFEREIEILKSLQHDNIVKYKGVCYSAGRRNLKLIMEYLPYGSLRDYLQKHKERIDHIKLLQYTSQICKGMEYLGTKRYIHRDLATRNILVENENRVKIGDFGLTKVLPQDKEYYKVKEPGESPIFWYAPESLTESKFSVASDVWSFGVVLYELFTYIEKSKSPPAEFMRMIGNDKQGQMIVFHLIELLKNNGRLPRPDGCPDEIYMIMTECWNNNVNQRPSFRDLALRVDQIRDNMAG
Sequence of JAK2/JAK2 homdimeric complex (P32927 17-897 partner): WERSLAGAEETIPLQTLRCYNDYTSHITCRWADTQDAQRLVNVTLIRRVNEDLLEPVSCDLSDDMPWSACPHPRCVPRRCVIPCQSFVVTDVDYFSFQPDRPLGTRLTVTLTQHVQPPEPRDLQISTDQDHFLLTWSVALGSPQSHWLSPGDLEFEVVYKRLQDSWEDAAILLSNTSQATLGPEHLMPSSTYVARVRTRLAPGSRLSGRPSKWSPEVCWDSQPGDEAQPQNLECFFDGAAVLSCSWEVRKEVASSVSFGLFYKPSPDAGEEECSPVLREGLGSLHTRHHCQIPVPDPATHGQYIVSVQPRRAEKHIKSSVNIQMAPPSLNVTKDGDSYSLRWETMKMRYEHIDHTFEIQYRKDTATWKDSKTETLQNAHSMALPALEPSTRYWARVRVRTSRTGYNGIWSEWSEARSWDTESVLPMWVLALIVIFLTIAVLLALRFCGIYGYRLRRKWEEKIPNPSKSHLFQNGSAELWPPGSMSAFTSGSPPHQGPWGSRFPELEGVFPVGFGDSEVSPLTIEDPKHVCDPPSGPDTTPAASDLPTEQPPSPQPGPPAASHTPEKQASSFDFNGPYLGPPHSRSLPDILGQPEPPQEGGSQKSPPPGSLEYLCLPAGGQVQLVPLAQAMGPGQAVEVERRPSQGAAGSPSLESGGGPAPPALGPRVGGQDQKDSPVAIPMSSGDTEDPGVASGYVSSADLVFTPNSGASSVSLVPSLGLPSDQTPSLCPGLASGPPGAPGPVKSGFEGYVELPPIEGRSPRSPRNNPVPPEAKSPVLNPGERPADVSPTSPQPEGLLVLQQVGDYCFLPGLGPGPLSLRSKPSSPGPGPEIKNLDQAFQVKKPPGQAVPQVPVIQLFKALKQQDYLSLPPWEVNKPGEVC

Sequence of JAK2 kinase domain (JH1) (O60674 849-1124): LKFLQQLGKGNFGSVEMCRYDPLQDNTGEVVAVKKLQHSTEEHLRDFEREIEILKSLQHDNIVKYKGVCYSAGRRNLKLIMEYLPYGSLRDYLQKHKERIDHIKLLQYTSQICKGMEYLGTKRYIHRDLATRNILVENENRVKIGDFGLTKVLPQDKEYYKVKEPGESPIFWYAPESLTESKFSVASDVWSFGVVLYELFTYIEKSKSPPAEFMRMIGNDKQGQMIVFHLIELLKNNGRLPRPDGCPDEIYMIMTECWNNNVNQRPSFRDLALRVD
Sequence of human TYK2 (JH2domain-pseudokinase) (P29597 556-888): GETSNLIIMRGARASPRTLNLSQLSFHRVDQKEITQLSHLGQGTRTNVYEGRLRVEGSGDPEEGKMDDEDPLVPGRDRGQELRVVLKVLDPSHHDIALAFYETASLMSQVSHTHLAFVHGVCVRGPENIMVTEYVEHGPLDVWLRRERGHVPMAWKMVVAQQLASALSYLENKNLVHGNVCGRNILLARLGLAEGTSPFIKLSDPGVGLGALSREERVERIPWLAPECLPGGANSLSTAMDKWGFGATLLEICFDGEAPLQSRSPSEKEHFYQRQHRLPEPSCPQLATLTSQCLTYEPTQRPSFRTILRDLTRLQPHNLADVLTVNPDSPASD
Sequence of Tyk2 kinase domain (DH1) (P29597 897-1176): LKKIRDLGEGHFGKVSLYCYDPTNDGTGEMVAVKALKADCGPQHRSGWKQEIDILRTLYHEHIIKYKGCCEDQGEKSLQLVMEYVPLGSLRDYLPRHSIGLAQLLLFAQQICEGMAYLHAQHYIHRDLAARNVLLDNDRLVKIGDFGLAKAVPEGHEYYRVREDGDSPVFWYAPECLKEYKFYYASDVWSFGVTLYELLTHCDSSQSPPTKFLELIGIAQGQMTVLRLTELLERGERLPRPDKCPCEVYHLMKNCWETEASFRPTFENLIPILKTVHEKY
Sequence of Tyk2/JAK2 (heterodimeric complex) (P29597 whole entry, other chains not shown): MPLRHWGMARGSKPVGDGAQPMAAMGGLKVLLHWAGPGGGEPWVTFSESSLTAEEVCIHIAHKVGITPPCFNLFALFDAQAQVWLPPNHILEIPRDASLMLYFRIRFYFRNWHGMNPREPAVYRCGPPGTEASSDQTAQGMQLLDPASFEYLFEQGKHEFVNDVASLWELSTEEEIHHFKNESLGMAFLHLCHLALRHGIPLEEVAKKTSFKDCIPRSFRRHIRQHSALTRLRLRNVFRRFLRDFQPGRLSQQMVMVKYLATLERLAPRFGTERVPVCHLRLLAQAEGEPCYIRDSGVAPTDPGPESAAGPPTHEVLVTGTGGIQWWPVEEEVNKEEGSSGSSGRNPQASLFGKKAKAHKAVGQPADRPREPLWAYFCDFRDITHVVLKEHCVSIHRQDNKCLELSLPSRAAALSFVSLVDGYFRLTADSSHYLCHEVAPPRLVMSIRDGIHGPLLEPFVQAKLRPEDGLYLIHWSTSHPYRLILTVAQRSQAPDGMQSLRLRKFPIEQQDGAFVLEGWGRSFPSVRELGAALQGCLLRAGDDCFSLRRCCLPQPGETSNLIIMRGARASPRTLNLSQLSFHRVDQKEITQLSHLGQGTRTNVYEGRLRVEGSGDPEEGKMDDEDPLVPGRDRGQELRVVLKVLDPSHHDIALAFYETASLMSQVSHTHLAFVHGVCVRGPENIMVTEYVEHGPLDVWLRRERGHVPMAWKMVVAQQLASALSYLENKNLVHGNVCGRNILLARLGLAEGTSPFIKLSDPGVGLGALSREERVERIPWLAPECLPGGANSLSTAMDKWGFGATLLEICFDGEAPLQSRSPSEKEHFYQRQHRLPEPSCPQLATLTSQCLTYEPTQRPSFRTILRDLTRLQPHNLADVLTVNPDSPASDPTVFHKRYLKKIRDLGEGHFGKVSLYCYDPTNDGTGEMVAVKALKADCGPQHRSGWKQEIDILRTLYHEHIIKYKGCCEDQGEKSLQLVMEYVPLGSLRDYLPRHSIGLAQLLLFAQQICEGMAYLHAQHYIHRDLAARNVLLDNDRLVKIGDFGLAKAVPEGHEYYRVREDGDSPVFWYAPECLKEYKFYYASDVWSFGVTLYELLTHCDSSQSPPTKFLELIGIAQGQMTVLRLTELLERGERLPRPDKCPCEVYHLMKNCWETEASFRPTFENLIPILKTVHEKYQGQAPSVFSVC

Kd [1] [nM]	IC50 [2] [nM]	inhibition at 10 µM ([3]; compound at 10 μM, ATP 10 μM) [%]	inhibition at 10 µM ([4]; compound at 10 μM, ATP 10 μM) [%]	IC50 [5] [nM]	inhibition at 10 µM ([3]; 10 μM compound, 10 μM ATP) [%]	inhibition at 10 µM ([4]; 10 μM compound, 10 μM ATP) [%]	SMILES	JAK2 JH1% Inhibition @ 10 μM ([3]; compound at 10 μM, ATP 10 μM)	Tyk2 JH1% Inhibition @ 10 μM ([4]; compound at 10 μM, ATP 10 μM)	JAK2 JH1% Inhibition @ 10 μM ([3]; 10 μM compound, 10 μM ATP)	Tyk2 JH1% Inhibition @ 10 μM ([4]; 10 μM compound, 10 μM ATP)
< 0.2	< 100	< 50	< 50	> 12500	–	–	CNc1cc(-c2cn(C(C)C)c3ncc(Cl)cc23)nc2c(C(N)=O)cnn12 [I-272, 5-(5-chloro-1-isopropyl-1H-pyrrolo[2,3-b]pyridin-3-yl)-7-(methylamino) pyrazolo[1,5-a]pyrimidine-3-carboxamide]	–	–	–	–
< 0.2	< 100	< 50	< 50	> 50000	–	–	CNc1cc(-c2cn(C(C)C)c3ncccc23)nc2c(C(=O)N[C@H]3CC[C@@H]3O)cnn12 [I-586, N-((1R,2R)-2-hydroycyclobutyl)-5-(1-isopropyl-1H-pyrrolo[2,3-b]pyridin-3-yl)-7-(methylamino)pyrazolo[1,5-a]pyrimidine-3-carboxamide]	–	–	–	–
< 0.2	< 100	< 50	< 50	> 50000	–	–	CNc1cc(Nc2cc(C)cn(-c3cnn(C)c3)c2=O)nc2c(C(=O)NC3CC3)cnn12 [I-233]	–	–	–	–
< 0.2	< 100	< 50	< 50	> 2500	–	–	CNc1cc(Nc2cccn(-c3cc(C)on3)c2=O)nc2c(C(=O)NC3CC3)cnn12 [I-162]	–	–	–	–
< 0.2	< 100	–	–	> 50000	< 50	< 50	CNc1cc(-c2cn(C(C)C)c3ncccc23)nc2c(C(=O)N[C@@H]3COC[C@@H]3O)cnn12 [I-842, N-((3R,4R)-4-hydroxytetrahydrofuran-3-yl)-5-(1-isopropyl-1H-pyrrolo[2,3-b]pyridin-3-yl)-7-(methylamino)pyrazolo[1,5-a]pyrimidine-3-carboxamide]	–	–	–	–
< 0.2	< 100	–	–	> 12500	< 50	< 50	CNc1cc(Nc2cc(Cl)cn(C3CCN(C)CC3)c2=O)nc2c(C(=O)NC3CC3)cnn12 [I-883]	–	–	–	–
< 0.2	< 100	< 50	< 50	> 50000	–	–	CNc1cc(Nc2cccnc2OC)nc2c(C(=O)N[C@H]3C[C@H]3F)cnn12 [I-110]	–	–	–	–
< 0.2	< 100	< 50	< 50	> 50000	–	–	CNc1cc(Nc2cc(Cl)cn(C3CCCOC3)c2=O)nc2c(C(=O)N[C@H]3C[C@H]3F)cnn12 (some centres unmarked) [I-693]	–	–	–	–
0.2 to 1	< 100	< 50	< 50	> 2500	–	–	CNc1cc(Nc2cccn(-c3nccs3)c2=O)nc2c(C(=O)N[C@H]3C[C@H]3F)cnn12 [I-243]	–	–	–	–
< 0.2	< 100	50 to 70	< 50	> 12500	–	–	CNc1cc(Nc2cccc(N3CCOC3=O)n2)nc2c(C(=O)NC3CCC3)cnn12 [I-105]	–	–	–	–
< 0.2	< 100	< 50	< 50	> 50000	–	–	CNc1cc(Nc2cccc(N3CCC34COC4)n2)nc2c(C(=O)N[C@H]3C[C@H]3F)cnn12 [I-709]	–	–	–	–
< 0.2	< 100	< 50	< 50	> 12500	–	–	CNc1cc(Nc2cccn(-c3ocnc3C)c2=O)nc2c(C(=O)N[C@@H]3C[C@@H]3F)cnn12 [I-790]	–	–	–	–
< 0.2	< 100	< 50	< 50	> 50000	–	–	CNc1cc(Nc2cccn(-c3ccc(F)cn3)c2=O)nc2c(C(=O)NC3CCC3)cnn12 [I-238]	–	–	–	–
< 0.2	< 100	< 50	< 50	> 2500	–	–	CNc1cc(Nc2cccn(C3CC4(COC4)C3)c2=O)nc2c(C(=O)N[C@@H]3C[C@@H]3F)cnn12 [I-551, N-((1R,2S)-2-fluorocyclopropyl)-7-(methylamino)-5-((2-oxo-1-(2-oxaspiro[3.3]heptan-6-yl)-1,2-dihydropyridin-3-yl)amino)pyrazolo[1,5-a]pyrimidine-3-carboxamide]	–	–	–	–
< 0.2	< 100	< 50	< 50	> 2500	–	–	CNc1cc(Nc2cc(F)cn(-c3ccn(C)n3)c2=O)nc2c(C(=O)N[C@H]3C[C@H]3F)cnn12 [I-379]	–	–	–	–
–	< 100	–	–	> 50000	< 50	< 50	CNc1cc(Nc2cccn([C@H]3CC[C@@H]3O)c2=O)nc2c(C(=O)N[C@@H]3C[C@@H]3F)cnn12 [I-916]	–	–	–	–

Kd [1] [nM]	IC50 [2] [nM]	inhibition at 10 µM ([3]; compound at 10 μM, ATP 10 μM) [%]	inhibition at 10 µM ([4]; compound at 10 μM, ATP 10 μM) [%]	IC50 [5] [nM]	inhibition at 10 µM ([3]; 10 μM compound, 10 μM ATP) [%]	inhibition at 10 µM ([4]; 10 μM compound, 10 μM ATP) [%]	SMILES	JAK2 JH1% Inhibition @ 10 μM ([3]; compound at 10 μM, ATP 10 μM)	Tyk2 JH1% Inhibition @ 10 μM ([4]; compound at 10 μM, ATP 10 μM)	JAK2 JH1% Inhibition @ 10 μM ([3]; 10 μM compound, 10 μM ATP)	Tyk2 JH1% Inhibition @ 10 μM ([4]; 10 μM compound, 10 μM ATP)
–	< 100	–	–	> 50000	–	–	CNc1cc(Nc2cccn(-c3nc(C)co3)c2=O)nc2c(C(=O)N[C@@H]3CC[C@@H]3O)cnn12 [I-706]	A (percent inhibition at 10 μM lower than 50)	A (percent inhibition at 10 μM lower than 50)	–	–
–	< 100	–	–	> 12500	< 50	< 50	CNc1cc(-c2cn(CCN3CCCCC3)c3ncccc23)nc2c(C(=O)N[C@@H]3CC[C@H]3O)cnn12 [I-837]	–	–	–	–
–	< 100	–	–	> 50000	–	–	CNc1cc(Nc2cccn([C@@H]3CCC[C@H](OC)C3)c2=O)nc2c(C(=O)N[C@@H]3CC[C@H]3OC)cnn12 [I-995]	–	–	A (percent inhibition at 10 μM lower than 50)	A (percent inhibition at 10 μM lower than 50)
–	100 to 500	–	–	> 2500	–	–	CNc1cc(-c2cn(CCN3CCN(C)CC3)c3ncccc23)nc2c(C(=O)N[C@H]3CC[C@@H]3OC)cnn12 [I-952]	–	–	A (percent inhibition at 10 μM lower than 50)	A (percent inhibition at 10 μM lower than 50)
< 0.2	< 100	–	–	> 50000	–	–	CNc1cc(Nc2cccc(C)c2Cl)nc2c(C(N)=O)cnn12 [I-14]	–	–	–	–
–	< 100	–	–	> 50000	< 50	< 50	CNc1cc(Nc2cccn(C3CCCCC3)c2=O)nc2c(C(=O)N[C@@H]3CC[C@H]3O)cnn12 [I-943]	–	–	–	–
–	100 to 500	–	–	> 50000	< 50	< 50	CNc1cc(Nc2cccc3ocnc23)nc2c(C(=O)N[C@@H]3CC[C@H]3O)cnn12 [I-857]	–	–	–	–
–	< 100	–	–	> 50000	–	–	CNc1cc(-c2cn(C3CC3)c3ncccc23)nc2c(C(=O)N[C@H]3CC[C@H]3O)cnn12 [I-992, 5-(1-cyclopropyl-1H-pyrrolo[2,3-b]pyridin-3-yl)-N-((1S,2R)-2-hydroxycyclobutyl)-7-(methylamino)pyrazolo[1,5-a]pyrimidine-3-carboxamide]	–	–	A (percent inhibition at 10 μM lower than 50)	A (percent inhibition at 10 μM lower than 50)
–	< 100	–	–	> 50000	–	–	CNc1cc(Nc2cccn([C@@H]3CCC[C@H](OC)C3)c2=O)nc2c(C(=O)NC3CC3)cnn12 [I-621]	A (percent inhibition at 10 μM lower than 50)	A (percent inhibition at 10 μM lower than 50)	–	–
–	100 to 500	–	–	> 50000	< 50	< 50	CNc1cc(Nc2cccc3ocnc23)nc2c(C(=O)N[C@H]3COC[C@H]3O)cnn12 [I-834]	–	–	–	–
–	100 to 500	< 50	< 50	> 50000	–	–	[2H]C([2H])([2H])Oc1ncccc1Nc1cc(NC)n2ncc(C(=O)NC3CC4(COC4)C3)c2n1 [I-417, 5-((2-(methoxy-d3)pyridin-3-yl)amino)-7-(methylamino)-N-(2-oxaspiro[3.3]heptan-6-yl)pyrazolo[1,5-a]pyrimidine-3-carboxamide]	–	–	–	–
< 0.2	< 100	–	–	> 50000	–	–	CNc1cc(Nc2cccc(C3CCCOC3)n2)nc2c(C(=O)N[C@@H]3C[C@@H]3F)cnn12 (some centres unmarked) [I-522]	–	–	–	–
< 0.2	< 100	–	–	–	< 50	< 50	CNc1cc(Nc2cccn([C@H]3CCCN(CCF)C3)c2=O)nc2c(C(=O)N[C@@H]3C[C@@H]3F)cnn12 [I-900]	–	–	–	–
–	< 100	–	–	> 50000	–	–	CNc1cc(Nc2cccnc2OC2CC2)nc2c(C(=O)N[C@H]3CC[C@@H]3O)cnn12 [I-397]	A (percent inhibition at 10 μM lower than 50)	A (percent inhibition at 10 μM lower than 50)	–	–
–	< 100	–	–	> 50000	–	–	CNc1cc(Nc2cccn(-c3cccc(F)c3)c2=O)nc2c(C(=O)N[C@@H]3CC[C@H]3O)cnn12 [I-946]	–	–	A (percent inhibition at 10 μM lower than 50)	A (percent inhibition at 10 μM lower than 50)
